Measurements from ChEMBL document CHEMBL3885881, “DrugMatrix”.

Species: Rattus norvegicus
Assay: DrugMatrix - Regimen: Daily Repeat
Type: toxicity, organism-based, Sprague-Dawley
Set-up: regimen Daily Repeat, gender Male, age 6-8 weeks
Details: in vivo, po, route oral GAVAGE, vehicle .5 % CMC; for BASOPHIL / EOSINOPHIL / ERYTHROCYTE COUNT / HEMATOCRIT / HEMOGLOBIN / LEUKOCYTE COUNT / LYMPHOCYTE / MEAN CORPUSCULAR HEMOGLOBIN / MEAN CORPUSCULAR HEMOGLOBIN CONCENTRATION / MEAN CORPUSCULAR VOLUME / MONOCYTE / NEUTROPHIL / PLATELET COUNT: tissue Blood; for ALANINE AMINOTRANSFERASE / ALBUMIN / ALKALINE PHOSPHATASE / ASPARTATE AMINOTRANSFERASE / BLOOD UREA NITROGEN / CHLORIDE / CHOLESTEROL / CREATINE PHOSPHOKINASE / CREATININE / GLUCOSE / PHOSPHORUS / POTASSIUM / SODIUM / TOTAL BILIRUBIN / TOTAL PROTEIN: tissue Plasma
[1] = 0 mg/kg, 72 h, dose level Control, time 3 day
[2] = 0 mg/kg, 120 h, dose level Control, time 5 day
[3] = 10 mg/kg, 72 h, dose level Low, time 3 day
[4] = 10 mg/kg, 120 h, dose level Low, time 5 day
[5] = 1500 mg/kg, 72 h, dose level High, time 3 day
[6] = 1500 mg/kg, 120 h, dose level High, time 5 day

Structure (SMILES): COc1ccc(Cl)cc1C(=O)NCCc1ccc(S(=O)(=O)NC(=O)NC2CCCCC2)cc1 [GLYBURIDE]
- BASOPHIL [1]: 0%
- EOSINOPHIL [1]: 0%
- ERYTHROCYTE COUNT [1]: 6.34 x10E6/uL
- HEMATOCRIT [1]: 37.62%
- HEMOGLOBIN [1]: 14.82 G/DL
- LEUKOCYTE COUNT [1]: 11.18 x10E3/uL
- LYMPHOCYTE [1]: 87.5%
- MEAN CORPUSCULAR HEMOGLOBIN [1]: 23.48 pg
- MEAN CORPUSCULAR HEMOGLOBIN CONCENTRATION [1]: 39.5 G/DL
- MEAN CORPUSCULAR VOLUME [1]: 59.45 fL
- MONOCYTE [1]: 1.67%
- NEUTROPHIL [1]: 10.83%
- PLATELET COUNT [1]: 1074.83 x10E3/uL
- ALANINE AMINOTRANSFERASE [1]: 36.5 u/L
- ALBUMIN [1]: 3.9 G/DL
- ALKALINE PHOSPHATASE [1]: 370.17 u/L
- ASPARTATE AMINOTRANSFERASE [1]: 63.17 u/L
- BLOOD UREA NITROGEN [1]: 16.83 mg/dL
- CHLORIDE [1]: 99.33 MEQ/L
- CHOLESTEROL [1]: 64.33 mg/dL
- CREATINE PHOSPHOKINASE [1]: 127 u/L
- CREATININE [1]: 0.55 mg/dL
- GLUCOSE [1]: 173.5 mg/dL
- PHOSPHORUS [1]: 10.08 mg/dL
- POTASSIUM [1]: 6.23 MEQ/L
- SODIUM [1]: 143.5 MEQ/L
- TOTAL BILIRUBIN [1]: 0.52 mg/dL
- TOTAL PROTEIN [1]: 6.35 G/DL
- BASOPHIL [2]: 0%
- EOSINOPHIL [2]: 0.17%
- ERYTHROCYTE COUNT [2]: 6.12 x10E6/uL
- HEMATOCRIT [2]: 37.08%
- HEMOGLOBIN [2]: 14.82 G/DL
- LEUKOCYTE COUNT [2]: 11.87 x10E3/uL
- LYMPHOCYTE [2]: 83.33%
- MEAN CORPUSCULAR HEMOGLOBIN [2]: 24.25 pg
- MEAN CORPUSCULAR HEMOGLOBIN CONCENTRATION [2]: 39.97 G/DL
- MEAN CORPUSCULAR VOLUME [2]: 60.65 fL
- MONOCYTE [2]: 1.5%
- NEUTROPHIL [2]: 15%
- PLATELET COUNT [2]: 1042.83 x10E3/uL
- ALANINE AMINOTRANSFERASE [2]: 46 u/L
- ALBUMIN [2]: 3.82 G/DL
- ALKALINE PHOSPHATASE [2]: 369.5 u/L
- ASPARTATE AMINOTRANSFERASE [2]: 65 u/L
- BLOOD UREA NITROGEN [2]: 16.33 mg/dL
- CHLORIDE [2]: 100.67 MEQ/L
- CHOLESTEROL [2]: 57.17 mg/dL
- CREATINE PHOSPHOKINASE [2]: 130 u/L
- CREATININE [2]: 0.53 mg/dL
- GLUCOSE [2]: 163.33 mg/dL
- PHOSPHORUS [2]: 9.53 mg/dL
- POTASSIUM [2]: 6.27 MEQ/L
- SODIUM [2]: 144.83 MEQ/L
- TOTAL BILIRUBIN [2]: 0.55 mg/dL
- TOTAL PROTEIN [2]: 6.32 G/DL
- BASOPHIL [3]: 0%
- EOSINOPHIL [3]: 0.33%
- ERYTHROCYTE COUNT [3]: 6.67 x10E6/uL
- HEMATOCRIT [3]: 40.2%
- HEMOGLOBIN [3]: 15.57 G/DL
- LEUKOCYTE COUNT [3]: 12.13 x10E3/uL
- LYMPHOCYTE [3]: 90.33%
- MEAN CORPUSCULAR HEMOGLOBIN [3]: 23.33 pg
- MEAN CORPUSCULAR HEMOGLOBIN CONCENTRATION [3]: 38.7 G/DL
- MEAN CORPUSCULAR VOLUME [3]: 60.3 fL
- MONOCYTE [3]: 1.33%
- NEUTROPHIL [3]: 8%
- PLATELET COUNT [3]: 1148 x10E3/uL
- ALANINE AMINOTRANSFERASE [3]: 30.33 u/L
- ALBUMIN [3]: 4.1 G/DL
- ALKALINE PHOSPHATASE [3]: 317.67 u/L
- ASPARTATE AMINOTRANSFERASE [3]: 61 u/L
- BLOOD UREA NITROGEN [3]: 15 mg/dL
- CHLORIDE [3]: 99.33 MEQ/L
- CHOLESTEROL [3]: 66.33 mg/dL
- CREATINE PHOSPHOKINASE [3]: 164.67 u/L
- CREATININE [3]: 0.5 mg/dL
- GLUCOSE [3]: 160.33 mg/dL
- PHOSPHORUS [3]: 11.87 mg/dL
- POTASSIUM [3]: 6.23 MEQ/L
- SODIUM [3]: 144.67 MEQ/L
- TOTAL BILIRUBIN [3]: 0.3 mg/dL
- TOTAL PROTEIN [3]: 6.77 G/DL
- BASOPHIL [4]: 0%
- EOSINOPHIL [4]: 0%
- ERYTHROCYTE COUNT [4]: 6.4 x10E6/uL
- HEMATOCRIT [4]: 37.3%
- HEMOGLOBIN [4]: 14.67 G/DL
- LEUKOCYTE COUNT [4]: 11.77 x10E3/uL
- LYMPHOCYTE [4]: 91.67%
- MEAN CORPUSCULAR HEMOGLOBIN [4]: 22.97 pg
- MEAN CORPUSCULAR HEMOGLOBIN CONCENTRATION [4]: 39.33 G/DL
- MEAN CORPUSCULAR VOLUME [4]: 58.27 fL
- MONOCYTE [4]: 0.67%
- NEUTROPHIL [4]: 7.67%
- PLATELET COUNT [4]: 1048 x10E3/uL
- ALANINE AMINOTRANSFERASE [4]: 33 u/L
- ALBUMIN [4]: 3.77 G/DL
- ALKALINE PHOSPHATASE [4]: 328 u/L
- ASPARTATE AMINOTRANSFERASE [4]: 52.33 u/L
- BLOOD UREA NITROGEN [4]: 13.67 mg/dL
- CHLORIDE [4]: 98.33 MEQ/L
- CHOLESTEROL [4]: 53.33 mg/dL
- CREATINE PHOSPHOKINASE [4]: 128.67 u/L
- CREATININE [4]: 0.57 mg/dL
- GLUCOSE [4]: 174 mg/dL
- PHOSPHORUS [4]: 10.77 mg/dL
- POTASSIUM [4]: 5.8 MEQ/L
- SODIUM [4]: 144.33 MEQ/L
- TOTAL BILIRUBIN [4]: 0.37 mg/dL
- TOTAL PROTEIN [4]: 6.13 G/DL
- BASOPHIL [5]: 0%
- EOSINOPHIL [5]: 0%
- ERYTHROCYTE COUNT [5]: 6.36 x10E6/uL
- HEMATOCRIT [5]: 37.7%
- HEMOGLOBIN [5]: 14.87 G/DL
- LEUKOCYTE COUNT [5]: 13.87 x10E3/uL
- LYMPHOCYTE [5]: 88.67%
- MEAN CORPUSCULAR HEMOGLOBIN [5]: 23.43 pg
- MEAN CORPUSCULAR HEMOGLOBIN CONCENTRATION [5]: 39.47 G/DL
- MEAN CORPUSCULAR VOLUME [5]: 59.33 fL
- MONOCYTE [5]: 1%
- NEUTROPHIL [5]: 10.33%
- PLATELET COUNT [5]: 1260.33 x10E3/uL
- ALANINE AMINOTRANSFERASE [5]: 32 u/L
- ALBUMIN [5]: 3.4 G/DL
- ALKALINE PHOSPHATASE [5]: 223.33 u/L
- ASPARTATE AMINOTRANSFERASE [5]: 50 u/L
- BLOOD UREA NITROGEN [5]: 12 mg/dL
- CHLORIDE [5]: 104.33 MEQ/L
- CHOLESTEROL [5]: 52.67 mg/dL
- CREATINE PHOSPHOKINASE [5]: 133.33 u/L
- CREATININE [5]: 0.4 mg/dL
- GLUCOSE [5]: 122.67 mg/dL
- PHOSPHORUS [5]: 9.57 mg/dL
- POTASSIUM [5]: 6.9 MEQ/L
- SODIUM [5]: 150.33 MEQ/L
- TOTAL BILIRUBIN [5]: 0.23 mg/dL
- TOTAL PROTEIN [5]: 5.47 G/DL
- BASOPHIL [6]: 0%
- EOSINOPHIL [6]: 0%
- ERYTHROCYTE COUNT [6]: 6.13 x10E6/uL
- HEMATOCRIT [6]: 36.93%
- HEMOGLOBIN [6]: 14.7 G/DL
- LEUKOCYTE COUNT [6]: 14.7 x10E3/uL
- LYMPHOCYTE [6]: 94.33%
- MEAN CORPUSCULAR HEMOGLOBIN [6]: 24.03 pg
- MEAN CORPUSCULAR HEMOGLOBIN CONCENTRATION [6]: 39.8 G/DL
- MEAN CORPUSCULAR VOLUME [6]: 60.3 fL
- MONOCYTE [6]: 0.67%
- NEUTROPHIL [6]: 5%
- PLATELET COUNT [6]: 1089.67 x10E3/uL
- ALANINE AMINOTRANSFERASE [6]: 37 u/L
- ALBUMIN [6]: 3.67 G/DL
- ALKALINE PHOSPHATASE [6]: 297.33 u/L
- ASPARTATE AMINOTRANSFERASE [6]: 58.33 u/L
- BLOOD UREA NITROGEN [6]: 12.67 mg/dL
- CHLORIDE [6]: 99.67 MEQ/L
- CHOLESTEROL [6]: 63.33 mg/dL
- CREATINE PHOSPHOKINASE [6]: 139.33 u/L
- CREATININE [6]: 0.5 mg/dL
- GLUCOSE [6]: 135 mg/dL
- PHOSPHORUS [6]: 11.5 mg/dL
- POTASSIUM [6]: 6.2 MEQ/L
- SODIUM [6]: 145.33 MEQ/L
- TOTAL BILIRUBIN [6]: 0.33 mg/dL
- TOTAL PROTEIN [6]: 5.93 G/DL
